# In patent US11426441B2, “Composition comprising protein phosphatase 1 inhibitory peptide for treating vascular diseases” (BethphaGen Inc., priority 2016, dated 2022):
# No end group written: not given here.
# Columns and labels:
# [1] = tested on: monocrotaline (MCT)-induced pulmonary arterial hypertension rats; assay: Monocrotaline-induced pulmonary arterial hypertension in rats; format: in vivo, rat
# Procedure: (§1) Vascular smooth muscle cells (VSMCs) were homogenized in a minimal volume of 50 mM Tris-HCl, pH 7.4, supplemented with a broad-spectrum protease inhibitor cocktail (Calbiochem). The proteins were separated by SDS-PAGE and then transferred to polyvinylidene fluoride membranes (Schleicher & Schuell). After blocking with 5% (w/v) non-fat milk for 1 hour and washing with TBST, the membranes were incubated with antibodies against SERCA2a, SERCA2b (21st century biochemical), PCNA (abcam), GAPDH (Sigma-Aldrich), phospho-eNOS, eNOS, phospho-eIF2α, eIF2α (cell signaling), Vimentin, α-SMA, BMPR2 (Santa cruz), phospho-Akt, Akt (cell signaling), phospho-phospholamban (Merck), and Phospholamban (cell signaling). The membranes were then incubated with horseradish peroxidase-conjugated secondary antibodies (Jackson ImmunoResearch, West Grove, Pa., USA) and developed using a chemiluminescent substrate (Dogen). The blots were scanned and quantified using LAS software.
# Eleven Sprague-Dawley rats (Damool science, Korea) weighing 250-300 g were administered with 60 mg/kg monocrotaline (MCT) (Sigma Aldrich) via intraperitoneal injection, and three animals of a control group were administered with 0.9% physiological saline. According to the dosing schedule, simultaneously with the administration of MCT, six animals for the […] were administered with ψPLB-SE peptide diluted in 300 μl via respiratory inhalation four times at intervals of one week. Five animals for the control group were administered with control peptide. The rats were sacrificed one week after the administration with last peptide, and then histological analysis and molecular biological experiments were conducted.
# In order to indirectly measure the pulmonary artery pressure, right heart catheterization was conducted on the basis of a procedure reported in Nature Protocols in 2008. Rats were anesthetized, followed by tracheal intubation. The rats were placed on a homeothermic plate (AD Instruments, Spechbach, Germany) for the maintenance of body temperature during heart catheterization, and then kept breathing using an artificial respiratory device only for an animal (MiniVent type 845, Hugo Sachs Elektronik, March-Hugstetten, Germany). The chest of the rats was opened, and then high-fidelity 1.4 F micromanometer/Mikro-Tip Pressure catheter (Millar Instruments, Houston, Tex.) was allowed to infiltrate the tricuspid site, to measure the right ventricular end-systolic pressure, right ventricular end-diastolic pressure, left ventricular end-systolic pressure, and left ventricular end-diastolic pressure (RVESP, RVEDP, LVESP, LVEDP). Related values and data were collected and analyzed using the PowerLab data acquisition system (MPVS-Ultra Single Segment Foundation System, AD Instruments) and LabChart 7 for Windows software.
# (§2) Pulmonary tissues were taken from animal models, fixed with 4% (w/v) paraformaldehyde for 5 days at room temperature, and then washed with PBS. After embedding the specimens in paraffin and sectioning the tissue blocks into a thickness of 7 μm, the sections were stained with haematoxylin and eosin (Sigma Aldrich) to investigate the vascular thickness and inflammation, and the sections were stained with Masson-trichrome (Sigma Aldrich) to investigate the extent of perivascular fibrosis, and then observed through an optical microscope.
# (§3) The pulmonary tissues were obtained from rats and mice, and the cytokine levels in the tissues were quantitatively analyzed using human proinflammatory 10plex Meso Scale Diagnostics plates (MSD; Rockville, Md.).
# [2] = tested on: monocrotaline (MCT)-induced pulmonary arterial hypertension mice; assay: Monocrotaline-induced pulmonary arterial hypertension in mice; format: in vivo, mouse
# Procedure: as §1
# As for mice, fifteen C57BL/6 mice (Damool science, Korea) weighing 25-30 g were treated with 600 mg/kg MCT five times a week. Out of the mice, eight animals for a comparison group were administered with ψPLB-SE peptide four times at intervals of one week from day 15 after the administration of MCT. Five animals for a control group were administered with a control peptide. The mice were sacrificed one week after last administration, and then histological analysis and molecular biological experiments were conducted.
# as §2, §3
# Quantitative RT-PCR was performed using SYBR premix Ex Taq™ (Takara), though which the transcriptional levels of target genes were analyzed. RNA was isolated from pulmonary tissues using trizole (ambion), and synthesized into cDNA. Quantitative RT-PCR conditions were 40 cycles: 10 sec at 94° C., 30 sec at 59° C., and 10 sec at 72° C.
# cytosolic Ca^2+ level = assay: Intracellular Ca2+ measurement in HCSMCs; format: cell-based, human; conditions: HCSMCs pretreated 1 hour with 3 μM ψPLB-SE or 15 μM MDL28170, then 50 μM A23187 2 hours
# Procedure: FIGS. 4a, 4b, 4c and 4d. (4a-4c) HCSMCs were pretreated with 3 μM ψPLB-SE and 15 μM MDL28170 for 1 hour, and then treated with 50 μM A23187 for 2 hours. (4a) Immunostaining was performed with antibodies against SERCA2a and SERCA2b (green). Nuclei were stained with Hoechst (blue). Representative merged images are shown. Scale bar, 50 μm. (4b) Western blot analysis was performed with cell extracts. Data are expressed as the means±SD (n=3-4; *, P<0.05). (4c) Baseline Ca^2+ concentration was measured by lonOptix calcium imaging system. (4d) RASMC were treated with ψPLB-SE or control peptide under the same conditions as described for FIG. 1B. The baseline Ca^2+ concentration was measured by lonOptix calcium imaging system (*, P<0.05).
# The intracellular Ca^2+ level was measured in VSMCs by loading cells with 0.5 μM Fura2-AM (Molecular Probes, Eugene Oreg., USA), a Ca^2+-sensitive indicator, for 15 minutes at 37. The fluorescence was recorded using the lonOptix calcium imaging system. VSMCs were stimulated by the exposure to light emitted by a 75 W halogen lamp through either a 340 nm or 380 nm filter. The fluorescent emissions were detected between 480 nm and 520 nm by a photomultiplier tube after an initial illumination at 340 nm for 0.5 second and then at 380 nm during recording. The 340 nm excitation scan was repeated at the end of the protocol, and qualitative changes in the intracellular Ca^2+ level were inferred from the ratio of the Fura2 fluorescent intensity at both wavelengths.
# PLB = PLB phosphorylation in RASMCs (western blotting); format: cell-based, rat
# Procedure: FIG. 7. ψPLB-SE attenuates PLB dephosphorylation in VSMCs. The proteins samples shown in FIG. 2C were subjected to western blotting. Antibodies against PLB or phospho-PLB were used. Data are expressed as the means±SD (n=3-4; *, P<0.05).
# as §1
sequence,measurement,setting,value
"RAETIEMPQ (not fully specified) [ψPLB-SE, 9-mer PP1 decoy peptide mimicking phosphorylated PLB; conjugated via GGG linker to cell penetrating peptide dNP2 or TAT]",right ventricular end-systolic pressure,"[1]; MCT 60 mg/kg rats, peptide via respiratory inhalation once a week for 4 weeks, MCT 67.4±6.4, sham 33.7±1.7",33.5±5.8
same,expression degree of BMPR2,[1]; rat pulmonary tissue,restored
same,fibrosis extent of vascular adventitia (Masson-trichrome staining),[1]; rat pulmonary tissue,reduced
same,increase in vascular thickening (hematoxylin and eosin staining),[1]; rat pulmonary tissue,attenuated
same,phosphorylation level of eIF2α,[1]; rat pulmonary tissue,restored
same,"proinflammatory cytokines (GM-CSF, TNF-α, IL-17, IL-1β, IL-6, TGF-β) levels",[1]; rat pulmonary tissue,restored to nearly to the normal levels
same,eNOS phosphorylation level (eNOS activity),[1]; rat pulmonary tissue proteins,increased
same,increases in the expression of vimentin and α-SMA,"[1]; rat pulmonary tissue, protein quantitative analysis",attenuated
same,expression level of SERCA2a,[2]; mouse pulmonary tissue,increased
same,fibrosis extent of vascular adventitia (Masson-trichrome staining),[2]; mouse pulmonary tissue,attenuated
same,"increases in the protein and mRNA expression of TGF-β, Collagen 1, vimentin, and α-SMA",[2]; mouse pulmonary tissue,attenuated
same,"proinflammatory cytokines (GM-CSF, TNF-α, IL-17, IL-1β, IL-6, TGF-β) levels",[2]; mouse pulmonary tissue,restored to nearly to the normal levels
same,eNOS phosphorylation level (eNOS activity),[2]; mouse pulmonary tissue proteins,increased
same,increase in vascular thickening (hematoxylin and eosin staining),"[2]; mouse pulmonary tissue, MCT 600 mg/kg, peptide via respiratory inhalation once a week for 4 weeks from the second week",attenuated
same,increase in monocyte infiltration,"[2]; mouse pulmonary tissue, hematoxylin and eosin staining",attenuated
same,"mRNA expression levels of TNF-α, IL-17, IL-1β, F4/80, and MCP-1","[2]; mouse pulmonary tissue, quantitative RT-PCR",reduced
same,elevation of the cytosolic Ca^2+ level by A23187,cytosolic Ca^2+ level,normalized
same,dephosphorylation of PLB,PLB,inhibited
